For series [1] the following is noted: Crystal; DSC.
Series [2] in a line: Molar enthalpy of transition or fusion. To be noted: Crystal; DSC.

SMILES strings stand for the structures. ± gives the expanded uncertainty stated by the source.

The values below come from the NIST ThermoML archive (doi:10.1021/acs.jced.9b00362).

Take `O=P(O)(O)c1ccccc1` [phenylphosphonic acid]: the Triple point temperature in series [1] amounted to 437.53 ± 0.93 K. For the same compound, the “Molar enthalpy of transition or fusion” value in series [2] is 5.72 ± 0.502 kcal/mol.
